Test results from patent US20120172384A1, “HETEROCYCLYLAMINOPYRIMIDINES AS KINASE INHIBITORS” (priority 2009, published 2012).

The compounds below were run against T1, JAK3 (Homo sapiens, UniProt P52333) (assay: JAK3 kinobeads assay). Details: cell lysate, dot blot with JAK3 specific antibody.
T1 construct: endogenous in cells
T1 sequence (P52333 1-1124): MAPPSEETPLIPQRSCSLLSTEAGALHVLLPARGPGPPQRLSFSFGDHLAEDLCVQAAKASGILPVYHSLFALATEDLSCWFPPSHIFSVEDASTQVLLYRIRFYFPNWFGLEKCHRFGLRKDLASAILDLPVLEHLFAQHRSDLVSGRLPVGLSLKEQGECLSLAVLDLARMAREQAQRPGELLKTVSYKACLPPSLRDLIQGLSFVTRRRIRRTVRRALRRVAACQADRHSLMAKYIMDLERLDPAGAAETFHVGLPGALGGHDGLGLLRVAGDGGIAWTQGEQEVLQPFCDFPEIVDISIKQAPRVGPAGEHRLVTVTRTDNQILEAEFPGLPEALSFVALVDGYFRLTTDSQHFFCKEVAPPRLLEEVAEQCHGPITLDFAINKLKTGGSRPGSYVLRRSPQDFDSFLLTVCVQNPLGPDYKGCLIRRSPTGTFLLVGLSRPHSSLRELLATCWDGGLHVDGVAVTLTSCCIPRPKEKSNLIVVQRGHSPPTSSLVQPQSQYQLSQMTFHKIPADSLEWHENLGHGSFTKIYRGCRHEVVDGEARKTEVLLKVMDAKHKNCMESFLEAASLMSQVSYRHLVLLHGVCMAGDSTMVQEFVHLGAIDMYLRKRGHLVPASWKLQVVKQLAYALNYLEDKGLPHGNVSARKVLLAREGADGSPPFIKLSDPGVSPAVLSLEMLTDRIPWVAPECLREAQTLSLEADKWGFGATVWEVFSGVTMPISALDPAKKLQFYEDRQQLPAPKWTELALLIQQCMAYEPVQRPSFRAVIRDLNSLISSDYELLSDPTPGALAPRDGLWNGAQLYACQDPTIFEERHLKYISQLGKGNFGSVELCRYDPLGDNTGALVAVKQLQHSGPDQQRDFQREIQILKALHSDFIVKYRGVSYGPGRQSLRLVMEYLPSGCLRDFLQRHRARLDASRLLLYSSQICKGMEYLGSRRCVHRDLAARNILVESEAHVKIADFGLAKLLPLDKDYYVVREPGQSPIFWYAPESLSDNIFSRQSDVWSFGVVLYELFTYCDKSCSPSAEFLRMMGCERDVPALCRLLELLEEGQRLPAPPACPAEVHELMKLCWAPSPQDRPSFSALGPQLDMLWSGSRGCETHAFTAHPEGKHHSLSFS
Assay type: binding
Method: (§1) The compounds of the present invention as described in the previous examples were tested in the ZAP-70 kinobeads assay as described (EP-A 1862802 and WO-A 2007/137867). Briefly, test compounds (at various concentrations) and the affinity matrix with the immobilized aminopyrido-pyrimidine ligand 24 are added to cell lysate aliquots and allowed to bind to the proteins in the lysate sample. After the incubation time the beads with captured proteins are separated from the lysate. Bound proteins are then eluted and the presence ZAP-70 is detected and quantified using a specific antibody in a dot blot procedure and the Odyssey infrared detection system.
Compounds were tested by the procedure described in Example 102 but using a JAK3 specific antibody (Cell Signaling Technology, Inc., Danvers, US, catalogue number 3775) instead of a ZAP70 antibody.

Row | IC50 [nM] | SMILES
1 | ≤ 100 | COc1nn(CC(F)F)cc1Nc1ncc(Cl)c(Nc2ccccc2NS(C)(=O)=O)n1 [Example 80, N-(2-((5-chloro-2-((1-(2,2-difluoroethyl)-3-methoxy-1H-pyrazol-4-yl)amino)pyrimidin-4-yl)amino)phenyl)methanesulfonamide]
2 | 100 to 1000 | COc1nn(CC(F)(F)F)cc1Nc1ncc(Cl)c(Nc2ccccc2NS(C)(=O)=O)n1 [Example 82, N-(2-((5-chloro-2-((3-methoxy-1-(2,2,2-trifluoroethyl)-1H-pyrazol-4-yl)amino)pyrimidin-4-yl)amino)phenyl)methanesulfonamide]
3 | 100 to 1000 | Cc1cc(Nc2ncc(Cl)c(Nc3ccccc3NS(C)(=O)=O)n2)nn1CC(F)(F)F [Example 83, N-(2-((5-chloro-2-((5-methyl-1-(2,2,2-trifluoroethyl)-1H-pyrazol-3-yl)amino)pyrimidin-4-yl)amino)phenyl)methanesulfonamide]
4 | ≤ 100 | Cn1nc(Nc2ncc(Cl)c(Nc3ccccc3NS(C)(=O)=O)n2)cc1C(=O)O [Example 92, 3-((5-chloro-4-((2-(methylsulfonamido)phenyl)amino)pyrimidin-2-yl)amino)-1-methyl-1H-pyrazole-5-carboxylic acid]
5 | ≤ 100 | CNC(=O)c1cc(Nc2ncc(Cl)c(Nc3ccccc3NS(C)(=O)=O)n2)nn1C [Example 97, 3-((5-chloro-4-((2-(methylsulfonamido)phenyl)amino)pyrimidin-2-yl)amino)-N,1-dimethyl-1H-pyrazole-5-carboxamide]
6 | ≤ 100 | CCNC(=O)c1cc(Nc2ncc(Cl)c(Nc3ccccc3NS(C)(=O)=O)n2)nn1C [Example 100, 3-((5-chloro-4-((2-(methylsulfonamido)phenyl)amino)pyrimidin-2-yl)amino)-N-ethyl-1-methyl-1H-pyrazole-5-carboxamide]

Second part, the compound before the results:

Row | SMILES | IC50 [nM]
7 | Cc1nn(CC(F)F)cc1Nc1ncc(Cl)c(Nc2ccccc2NS(C)(=O)=O)n1 [Example 81, N-(2-((5-chloro-2-((1-(2,2-difluoroethyl)-3-methyl-1H-pyrazol-4-yl)amino)pyrimidin-4-yl)amino)phenyl)methanesulfonamide] | ≤ 100
8 | CS(=O)(=O)Nc1ccccc1Nc1nc(Nc2cnn(CC(F)F)c2)ncc1F [Example 85, N-(2-((2-((1-(2,2-difluoroethyl)-1H-pyrazol-4-yl)amino)-5-fluoropyrimidin-4-yl)amino)phenyl)methanesulfonamide] | ≤ 100
9 | Cn1cc(Nc2ncc(Cl)c(Nc3cccc(F)c3NS(C)(=O)=O)n2)cn1 [Example 89, N-(2-((5-chloro-2-((1-methyl-1H-pyrazol-4-yl)amino)pyrimidin-4-yl)amino)-6-fluorophenyl)methanesulfonamide] | ≤ 100
10 | CCn1nc(Nc2ncc(Cl)c(Nc3cccc(F)c3NS(C)(=O)=O)n2)cc1C [Example 91, N-(2-((5-chloro-2-((1-ethyl-5-methyl-1H-pyrazol-3-yl)amino)pyrimidin-4-yl)amino)-6-fluorophenyl)methanesulfonamide] | ≤ 100
11 | COCCn1cc(Nc2ncc(Cl)c(Nc3cccc(F)c3NS(C)(=O)=O)n2)cn1 [Example 93, N-(2-((5-chloro-2-((1-(2-methoxyethyl)-1H-pyrazol-4-yl)amino)pyrimidin-4-yl)amino)-6-fluorophenyl)methanesulfonamide] | ≤ 100
12 | Cn1cc(Nc2ncc(F)c(Nc3cccc(F)c3NS(C)(=O)=O)n2)cn1 [Example 99, N-(2-fluoro-6-((5-fluoro-2-((1-methyl-1H-pyrazol-4-yl)amino)pyrimidin-4-yl)amino)phenyl)methanesulfonamide] | ≤ 100
13 | Cn1nc(Nc2ncc(Cl)c(Nc3ccccc3NS(C)(=O)=O)n2)cc1C(=O)NCCO [Example 101, 3-((5-chloro-4-((2-(methylsulfonamido)phenyl)amino)pyrimidin-2-yl)amino)-N-(2-hydroxyethyl)-1-methyl-1H-pyrazole-5-carboxamide] | ≤ 100

The compounds below were run against T2, ZAP-70 (Homo sapiens, UniProt P43403) (assay: ZAP-70 kinobeads assay). Details: cell lysate, dot blot with ZAP-70 antibody.
T2 construct: endogenous in cells
T2 sequence (P43403 1-619): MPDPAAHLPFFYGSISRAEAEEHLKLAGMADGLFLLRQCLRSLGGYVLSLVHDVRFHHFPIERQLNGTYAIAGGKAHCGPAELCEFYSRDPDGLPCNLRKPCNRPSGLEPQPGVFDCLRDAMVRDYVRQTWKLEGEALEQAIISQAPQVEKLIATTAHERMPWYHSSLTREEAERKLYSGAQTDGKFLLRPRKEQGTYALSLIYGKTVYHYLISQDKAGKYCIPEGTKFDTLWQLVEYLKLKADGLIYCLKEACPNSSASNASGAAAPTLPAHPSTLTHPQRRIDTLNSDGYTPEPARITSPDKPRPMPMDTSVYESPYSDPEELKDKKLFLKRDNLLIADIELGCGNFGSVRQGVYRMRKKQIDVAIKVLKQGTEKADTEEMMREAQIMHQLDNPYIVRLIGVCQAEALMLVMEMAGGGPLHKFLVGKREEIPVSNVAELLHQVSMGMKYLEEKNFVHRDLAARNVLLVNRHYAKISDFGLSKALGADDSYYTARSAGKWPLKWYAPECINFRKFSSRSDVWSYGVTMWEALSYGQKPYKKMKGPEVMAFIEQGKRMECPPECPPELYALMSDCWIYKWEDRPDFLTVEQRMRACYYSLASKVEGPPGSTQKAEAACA
Assay type: binding
Method: as §1

Row | IC50 [nM] | SMILES
14 | 1000 to 10000 | COc1ccc(Nc2nc(Nc3c(C)cnn3C)ncc2Cl)c(NS(C)(=O)=O)c1 [Example 14, N-(2-(5-chloro-2-(1,4-dimethyl-1H-pyrazol-5-ylamino)pyrimidin-4-ylamino)-5-methoxyphenyl)methanesulfonamide]
15 | 100 to 1000 | COc1ccc(Nc2nc(Nc3ccnn3C(C)C)ncc2Cl)c(NS(C)(=O)=O)c1 [Example 68, N-(2-((5-chloro-2-((1-isopropyl-1H-pyrazol-5-yl)amino)pyrimidin-4-yl)amino)-5-methoxyphenyl)methanesulfonamide]
16 | 100 to 1000 | CCCn1nccc1Nc1ncc(Cl)c(Nc2ccc(OC)cc2NS(C)(=O)=O)n1 [Example 76, N-(2-((5-chloro-2-((1-propyl-1H-pyrazol-5-yl)amino)pyrimidin-4-yl)amino)-5-methoxyphenyl)methanesulfonamide]

The next lines start with the compound.

Row | SMILES | IC50 [nM]
17 | CCc1nn(C)c(Nc2ncc(Cl)c(Nc3ccc(OC)cc3NS(C)(=O)=O)n2)c1C [Example 15, N-(2-(5-chloro-2-(3-ethyl-1,4-dimethyl-1H-pyrazol-5-ylamino)pyrimidin-4-ylamino)-5-methoxyphenyl)methanesulfonamide] | 1000 to 10000
18 | COc1ccc(Nc2nc(Nc3c(C)noc3C)ncc2Cl)c(NS(C)(=O)=O)c1 [Example 19, N-(2-(5-chloro-2-(3,5-dimethylisoxazol-4-ylamino)pyrimidin-4-ylamino)-5-methoxyphenyl)methanesulfonamide] | 1000 to 10000
19 | CCn1ncc(C)c1Nc1ncc(Cl)c(Nc2ccc(OC)cc2NS(C)(=O)=O)n1 [Example 26, N-(2-(5-chloro-2-(1-ethyl-4-methyl-1H-pyrazol-5-ylamino)pyrimidin-4-ylamino)-5-methoxyphenyl)methanesulfonamide] | 1000 to 10000
20 | CCC(C)n1nc(C)cc1Nc1ncc(Cl)c(Nc2ccc(OC)cc2NS(C)(=O)=O)n1 (centres unmarked) [Example 27, N-(2-(2-(1-sec-butyl-3-methyl-1H-pyrazol-5-ylamino)-5-chloropyrimidin-4-ylamino)-5-methoxyphenyl)methanesulfonamide] | 100 to 1000
21 | COc1ccc(Nc2nc(Nc3ccnn3CC3CC3)ncc2Cl)c(NS(C)(=O)=O)c1 [Example 60, N-(2-((5-chloro-2-((1-(cyclopropylmethyl)-1H-pyrazol-5-yl)amino)pyrimidin-4-yl)amino)-5-methoxyphenyl)methanesulfonamide] | 100 to 1000
22 | CCCn1nc(C)cc1Nc1ncc(Cl)c(Nc2ccc(OC)cc2NS(C)(=O)=O)n1 [Example 69, N-(2-((5-chloro-2-((3-methyl-1-propyl-1H-pyrazol-5-yl)amino)pyrimidin-4-yl)amino)-5-methoxyphenyl)methanesulfonamide] | ≤ 100
23 | COc1ccc(Nc2nc(Nc3cc(C)nn3C(C)C)ncc2Cl)c(NS(C)(=O)=O)c1 [Example 71, N-(2-((5-chloro-2-((1-isopropyl-3-methyl-1H-pyrazol-5-yl)amino)pyrimidin-4-yl)amino)-5-methoxyphenyl)methanesulfonamide] | 100 to 1000
